Measured values published in patent US4557754A, “Bis-(N,N-dimethyl-N-carbodecyloxymethyl-N-ethylene-ammonium)-sulphide dichloride and use thereof” (priority 1980, dated 1985).

Key:
[1] = Stability of aqueous solutions / retention of antimicrobial activity; type: physicochemical
Excerpt: Aqueous solutions of the preparation were stable.

[2] = test system: oats; assay: Effect on development of sprouts, agar medium in Petri dishes; type: in vivo; parameters: Germination capacity, oats: unit not given here; settings: for Plant parts length, oats leaf / Plant parts length, oats root: 7 days
Experimental: (§1) The effect of the preparation was studied for 7 days under laboratory conditions on lettuce and oats plants.
(§2) The standards used in the tests were chlorocholine chloride whose structure is close to the studied chemical compound and heteroauxin phytohormone. Experiments on lettuce and oats growing in the presence of the above substances at a concentration of from 0.1 to 0.00001 wt.% were performed in Petri dishes with the use of agar medium as a substrate.
(§3) The seeds were placed into Petri dishes on solidified agar containing the test substance in the concentration indicated. The seeds germinated in a thermostat for 3 days at a temperature of from 22° to 24° C. Petri dishes with the sprouts were then placed for further growth into an exhausting hood with illumination for 4 days, whereafter the length of the roots, stalks and leaves of the sprouts was measured.

[3] = test system: lettuce; assay: as above; type: in vivo; parameters: Germination capacity, lettuce: unit not given here; settings: for Plant parts length, lettuce root / Plant parts length, lettuce stalk: 7 days
Experimental: as §1, §2, §3

[4] = test system: calves; assay: Chronic toxicity test, intravenous; type: in vivo; settings: 10 mg per kg daily for 30 days
Excerpt: Test group consisted of 10 calves, the other 10 calves to which the above preparation was not prescribed making up a control group. The calves of both groups were kept in the same conditions. General state and behaviour of the calves, rate of gain were controlled and peripheric blood counts (hemoglobin, erythrocytes, leucocytes, thrombocytes, differential blood count) were made daily during the test. To determine the functional state of liver, kidneys, and pancreas, certain biochemical characteristics of the urine (protein, sugar, and biliary pigments content) and blood (sugar, cholesterol, bilirubin, urea, alkaline phosphatase, and chlorides content) were studied.
At the end of the test period the test group animals were killed and their internal organs were studied by macro- and microscopic techniques.

[5] = test system: Rats; assay: Toxicity (LD50) compared with chlorocholine chloride; type: in vivo; settings: versus chlorocholine chloride
[6] = test system: Salmonella sp.; assay: Antimicrobial activity, series dilutions in liquid nutrient media; type: cell-based; settings: 7 strains
Experimental: (§4) Antimicrobial properties of said preparation were investigated by a classical method of series dilutions in standard liquid nutrient media.
(§5) The activity of the above preparation was tested by its action on staphylococci, Escherichia coli, and intestinal group microorganisms.

[7] = test system: Escherichia coli; assay: as above; type: cell-based; settings: 10 strains
Experimental: as §4, §5

[8] = test system: Staphylococcus aureus; assay: as above; type: cell-based; settings: 20 strains
Experimental: as §4, §5

[9] = test system: Staphylococcus albus; assay: as above; type: cell-based; settings: 20 strains
Experimental: as §4, §5

[10] = test system: Proteus morgani; assay: as above; type: cell-based; settings: 4 strains
Experimental: as §4, §5

[11] = test system: Shigella sonnei; assay: as above; type: cell-based; settings: 7 strains
Experimental: as §4, §5

[12] = test system: Proteus vulgaris; assay: as above; type: cell-based; settings: 2 strains
Experimental: as §4, §5

[13] = Acute toxicity test; type: in vivo, white mice; settings: mouse, in vivo, mice, 24 hours
Experimental: (§6) Bis-(N,N-dimethyl-N-carbodecyloxymethyl-N-ethyleneammonium)-sulphide dichloride was tested for toxicity in an acute test on rats of both sexes with an average mass of 200 to 250 g and on white mice of both sexes with an average mass of 22 to 25 g with enteral and intraperitoneal administrations. Aqueous solutions of the above preparation (from 10 to 5000 mg per kg of animal weight) were used for enteral and intraperitoneal administration. Each dosage was tried on five animals. Animal death rate was registered 24 hours after the administration of the above solutions.

[14] = test system: Mice; assay: Acute toxicity test; type: in vivo, white mice; settings: for LD100: mice, 24 hours
Experimental: as §6

[15] = test system: staphylococci, Escherichia coli, and intestinal group microorganisms; assay: Antimicrobial action, overall; type: cell-based; settings: analysis of the test results
Experimental: as §4, §5

[16] = test system: Rats; assay: Acute toxicity test; type: in vivo; settings: 24 hours
Experimental: as §6

[17] = Acute toxicity test; type: in vivo; settings: rat, in vivo, rats
Experimental: as §6

[18] = Solubility; type: physicochemical
[19] = Treatment of inflammatory diseases of the middle ear; type: in vivo, men; settings: for Recovery with comparator solutions: in a great number of cases; for Irrigations of the tympanic cavity required, relative to the preparation: solutions, for the same purpose
Experimental: was tested in treating inflammatory diseases of the middle ear in men: acute otitis and antritis media purulenta, chronic purulent mesotympanitis, and chronic purulent epitympanitis.
The treatment was applied to 65 patients.
The treatment procedure consisted in thorough and copious irrigation (with the help of Hartmann's cannula or blunt-ended needle) of the middle ear, attic, and Eustachian tube for maximum removal of purulent exudate and cholesteatoma masses.

[20] = test system: Rats; settings: cited from earlier work
[21] = read-out: Average bactericidal concentration
[22] = read-out: Average bacteriostatic concentration

Structure (SMILES): CCCCCCCCCCOC(=O)C[N+](C)(C)CCSCC[N+](C)(C)CC(=O)OCCCCCCCCCC [bis-(N,N-dimethyl-N-carbodecyloxymethyl-N-ethyleneammonium)-sulphide dichloride]
- Activity after storage of solutions ([1]; 1% and 0.1% solutions, 6 months): did not lose its activity
- Stability of aqueous solutions ([1]; aqueous solutions): stable
- Antimicrobial activity as a function of pH ([1]; pH 5 to 8): remains unchanged
- Antimicrobial activity after autoclaving ([1]; single and double autoclaving, 60 minutes at 2.5 atm): did not alter the antimicrobial activity
- Germination capacity, oats ([2]; 0.00001 wt. %): 91
- Plant parts length, oats leaf ([2]; 0.00001 wt. %): 105
- Plant parts length, oats root ([2]; 0.00001 wt. %): 100
- Germination capacity, oats ([2]; 0.0001 wt. %): 87
- Plant parts length, oats leaf ([2]; 0.0001 wt. %): 99
- Plant parts length, oats root ([2]; 0.0001 wt. %): 86
- Germination capacity, oats ([2]; 0.001 wt. %): 87
- Plant parts length, oats leaf ([2]; 0.001 wt. %): 96
- Plant parts length, oats root ([2]; 0.001 wt. %): 88
- Germination capacity, oats ([2]; 0.01 wt. %): 86
- Plant parts length, oats leaf ([2]; 0.01 wt. %): 93
- Plant parts length, oats root ([2]; 0.01 wt. %): 54
- Germination capacity, oats ([2]; 0.1 wt. %): 87
- Plant parts length, oats leaf ([2]; 0.1 wt. %): 55
- Plant parts length, oats root ([2]; 0.1 wt. %): 6
- Inhibition of growth of roots versus leaves ([2]; oats (monocotyledonous)): more strongly inhibits the growth of roots than that of leaves
- Germination capacity, lettuce ([3]; 0.00001 wt. %): 86
- Plant parts length, lettuce root ([3]; 0.00001 wt. %): 91
- Plant parts length, lettuce stalk ([3]; 0.00001 wt. %): 91
- Germination capacity, lettuce ([3]; 0.0001 wt. %): 89
- Plant parts length, lettuce root ([3]; 0.0001 wt. %): 96
- Plant parts length, lettuce stalk ([3]; 0.0001 wt. %): 99
- Germination capacity, lettuce ([3]; 0.001 wt. %): 100
- Plant parts length, lettuce root ([3]; 0.001 wt. %): 88
- Plant parts length, lettuce stalk ([3]; 0.001 wt. %): 91
- Germination capacity, lettuce ([3]; 0.01 wt. %): 34
- Plant parts length, lettuce root ([3]; 0.01 wt. %): 15
- Plant parts length, lettuce stalk ([3]; 0.01 wt. %): 38
- Germination capacity, lettuce ([3]; 0.1 wt. %): 0
- Plant parts length, lettuce root ([3]; 0.1 wt. %): 2
- Plant parts length, lettuce stalk ([3]; 0.1 wt. %): 0
- Herbicidal action ([3]; 0.1 wt.%, dicotyledonous plants): selective herbicide
- Phytoncidal action ([3]; lettuce (dicotyledonous)): more phytoncidal
- Pathologic changes at autopsy, macro- and microscopic study [4]: no pathologic changes
- Changes in the calves under chronic test conditions ([4]; 0.2 wt.% in sodium chloride solution): did not cause significant changes
- Toxicity compared with chlorocholine chloride [5]: much lower
- MBC [6, 21]: 31.2 µg/mL
- MIC [6, 22]: 31.2 µg/mL
- MBC [7, 21]: 6.4 µg/mL
- MIC [7, 22]: 3.9 µg/mL
- MBC [8, 21]: 2.63 µg/mL
- MIC [8, 22]: 0.76 µg/mL
- MBC [9, 21]: 1.67 µg/mL
- MIC [9, 22]: 0.6 µg/mL
- MBC [10, 21]: 50.7 µg/mL
- MIC [10, 22]: 50.7 µg/mL
- MBC [11, 21]: 28.4 µg/mL
- MIC [11, 22]: 5.85 µg/mL
- MBC [12, 21]: 62.5 µg/mL
- MIC [12, 22]: 62.5 µg/mL
- LD50 at 24 h ([13]; ip, intraperitoneal): 54.1 mg/kg
- LD50 at 24 h ([13]; po, enteral): 1220 mg/kg
- Toxicity group, overall ([14]; analysis of the test results (mice, rats, calves)): low-toxic
- LD100 ([14]; enteral): 2500 mg/kg
- LD100 ([14]; intraperitoneal): 70.0 mg/kg
- Antimicrobial action, overall [15]: strong antimicrobial action
- LD100 ([16]; enteral): 3500 mg/kg
- LD100 ([16]; intraperitoneal): 80.0 mg/kg
- LD50 at 24 h ([17]; ip, intraperitoneal): 67.7 mg/kg
- LD50 at 24 h ([17]; po, enteral): 2660 mg/kg
- Solubility in diethyl ether ([18]; diethyl ether): insoluble
- Solubility in lower alcohols ([18]; lower alcohols): soluble
- Solubility in water ([18]; water): soluble

Structure (SMILES): [H]/N=C(/N)N[C@H]1[C@H](O)[C@@H](O)[C@H](O[C@@H]2O[C@@H](C)[C@](O)(C=O)[C@H]2O[C@@H]2O[C@@H](CO)[C@H](O)[C@@H](O)[C@@H]2NC)[C@@H](N/C(N)=N\[H])[C@@H]1O [streptomycin]
- Recovery with comparator solutions [19]: did not result in recovery
- Irrigations of the tympanic cavity required, relative to the preparation [19]: twice as many or even more

Structure (SMILES): C[N+](C)(C)CCCl.[Cl-] [Chlorocholine chloride]
- LD50 [20]: 250 mg/kg
- Germination capacity, oats ([2]; 0.0001 wt. %): 91
- Plant parts length, oats leaf ([2]; 0.0001 wt. %): 94
- Plant parts length, oats root ([2]; 0.0001 wt. %): 102
- Germination capacity, oats ([2]; 0.001 wt. %): 99
- Plant parts length, oats leaf ([2]; 0.001 wt. %): 97
- Plant parts length, oats root ([2]; 0.001 wt. %): 92
- Germination capacity, oats ([2]; 0.01 wt. %): 98
- Plant parts length, oats leaf ([2]; 0.01 wt. %): 96
- Plant parts length, oats root ([2]; 0.01 wt. %): 94
- Germination capacity, lettuce ([3]; 0.0001 wt. %): 98
- Plant parts length, lettuce root ([3]; 0.0001 wt. %): 104
- Plant parts length, lettuce stalk ([3]; 0.0001 wt. %): 98
- Germination capacity, lettuce ([3]; 0.001 wt. %): 94
- Plant parts length, lettuce root ([3]; 0.001 wt. %): 102
- Plant parts length, lettuce stalk ([3]; 0.001 wt. %): 110
- Germination capacity, lettuce ([3]; 0.01 wt. %): 94
- Inhibition of root development ([3]; 0.01 wt. %): does not inhibit root development
- Plant parts length, lettuce root ([3]; 0.01 wt. %): 101
- Plant parts length, lettuce stalk ([3]; 0.01 wt. %): 99

Structure (SMILES): O=C(O)Cc1c[nH]c2ccccc12 [Heteroauxine]
- Germination capacity, oats ([2]; 0.0001 wt. %): 100
- Plant parts length, oats leaf ([2]; 0.0001 wt. %): 92
- Plant parts length, oats root ([2]; 0.0001 wt. %): 88
- Germination capacity, oats ([2]; 0.001 wt. %): 102
- Plant parts length, oats leaf ([2]; 0.001 wt. %): 67
- Plant parts length, oats root ([2]; 0.001 wt. %): 28
- Germination capacity, oats ([2]; 0.01 wt. %): 84
- Plant parts length, oats leaf ([2]; 0.01 wt. %): 35
- Plant parts length, oats root ([2]; 0.01 wt. %): 19
- Germination capacity, lettuce ([3]; 0.0001 wt. %): 81
- Plant parts length, lettuce root ([3]; 0.0001 wt. %): 88
- Plant parts length, lettuce stalk ([3]; 0.0001 wt. %): 92
- Germination capacity, lettuce ([3]; 0.001 wt. %): 55
- Plant parts length, lettuce root ([3]; 0.001 wt. %): 27
- Plant parts length, lettuce stalk ([3]; 0.001 wt. %): 24
- Germination capacity, lettuce ([3]; 0.01 wt. %): 0
- Plant parts length, lettuce root ([3]; 0.01 wt. %): 0
- Plant parts length, lettuce stalk ([3]; 0.01 wt. %): 0

Structure (SMILES): CC1(C)S[C@@H]2[C@H](NC(=O)Cc3ccccc3)C(=O)N2[C@H]1C(=O)O [penicillin]
- Recovery with comparator solutions [19]: did not result in recovery
- Irrigations of the tympanic cavity required, relative to the preparation [19]: twice as many or even more
